Read-outs that look alike come from different tables or passages of the source.
Key:
Immune cells (THP-1) = format: cell-based, Human
Lung cells (A549) = format: cell-based, Human

## CCN(CCO)CCCC(C)Nc1ccnc2cc(Cl)ccc12 (centres unmarked) [Hydroxychloroquine sulphate]
Immune cells (THP-1); 0.1 µM
  Inhibition of IL-6: 90.7%
  Inhibition of IL-8: 23.2%
Immune cells (THP-1); 1 µM
  Inhibition of IL-6: 83.9%
  Inhibition of IL-8: 36.8%
Immune cells (THP-1); 5 µM
  Inhibition of IL-6: 94.2%
  Inhibition of IL-8: 53.4%
Immune cells (THP-1); 10 µM
  Inhibition of IL-6: 84.5%
  Inhibition of IL-8: 53.5%
Immune cells (THP-1); 20 µM
  Inhibition of IL-6: 100.0%
  Inhibition of IL-8: 36.1%
Lung cells (A549); 0.1 µM
  Inhibition of IL-6: 34.7%
  Inhibition of IL-8: 54.4%
Lung cells (A549); 1 µM
  Inhibition of IL-6: 53.4%
  Inhibition of IL-8: 40.8%
Lung cells (A549); 5 µM
  Inhibition of IL-6: 66.5%
  Inhibition of IL-8: 56.7%
Lung cells (A549); 10 µM
  Inhibition of IL-6: 60.7%
  Inhibition of IL-8: 44.0%
Lung cells (A549); 20 µM
  Inhibition of IL-6: 71.4%
  Inhibition of IL-8: 65.0%

Source: patent US20250041380A1, “R[…] FOR SARS-COV2 DISEASE” (priority 2021, published 2025)
